# Read-outs that look alike come from different tables or passages of the source.
# Target: T1, ASK1 (Homo sapiens, UniProt Q99683)
# T1 construct: a 2.2 kb DNA fragment containing an ASK1 gene was recovered from the gel; FLAG (N); made in house; host or cells: Sf-21 insect cells (recombinant baculovirus, pFASTBAC1)
# T1 sequence (Q99683 649-1374 limits assumed): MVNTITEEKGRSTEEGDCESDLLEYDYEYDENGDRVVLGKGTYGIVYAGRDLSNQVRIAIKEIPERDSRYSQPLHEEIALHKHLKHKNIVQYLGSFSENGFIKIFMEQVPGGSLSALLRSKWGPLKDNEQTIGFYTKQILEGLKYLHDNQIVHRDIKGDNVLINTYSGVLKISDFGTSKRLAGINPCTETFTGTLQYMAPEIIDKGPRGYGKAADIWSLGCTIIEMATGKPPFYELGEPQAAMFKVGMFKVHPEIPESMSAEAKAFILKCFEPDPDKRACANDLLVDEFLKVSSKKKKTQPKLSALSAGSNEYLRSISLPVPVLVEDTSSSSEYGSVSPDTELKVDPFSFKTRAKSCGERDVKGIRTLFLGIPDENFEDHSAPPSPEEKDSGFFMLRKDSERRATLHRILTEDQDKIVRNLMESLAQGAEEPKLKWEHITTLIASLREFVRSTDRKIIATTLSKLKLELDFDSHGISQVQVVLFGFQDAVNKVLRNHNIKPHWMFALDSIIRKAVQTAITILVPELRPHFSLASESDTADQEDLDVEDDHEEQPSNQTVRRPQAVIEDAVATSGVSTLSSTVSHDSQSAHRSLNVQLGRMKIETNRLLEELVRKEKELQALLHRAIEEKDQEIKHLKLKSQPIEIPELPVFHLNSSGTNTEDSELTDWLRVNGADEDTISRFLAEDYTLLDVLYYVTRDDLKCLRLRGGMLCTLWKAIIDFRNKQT
# Experiment: Scintillation assay for measuring the inhibitory effect against ASK1 (myelin basic protein substrate, [γ-32P]ATP)
# Type: biochemical
# Excerpt: The inhibitory effect of the compound of the invention on ASK1 may be evaluated by evaluating the phosphorylating activity of the enzyme on a known substrate with or without the presence of the test compound. Example B provides such an assay where myelin basic protein (Wako) is used as substrate and detection is by scintillation counting. It should be understood other substrates and detection mechanism may be used. A commercially available a kit, Cisbio's HTRF® KinEASE™ STK kit, has shown to be useful for evaluating ASK1 activity. The assay uses an anti-phosphoseric specific, Eu3+-Cryptate labeled antibody to mark the phosphorylated product of ASK1 on a biotinylated kinase substrate, and detection is by time resolved fluorescence using XL665 labeled streptavidin. The fluorescence intensity is proportional to the amount of product formation. Example C provides the assay protocol.
# Cloning of cDNA encoding human ASK1 was conducted by PCR using primers, 5′-[…] […]-3 (SEQ ID NO: 1) and 5′-AAAGCGGCCGCTCAA […]-3′ (SEQ ID NO: 2), from human heart cDNA library (Becton, Dickinson and Company). The PCR product was subjected to agarose gel (1%) electrophoresis, a 2.2 kb DNA fragment containing an ASK1 gene was recovered from the gel, and then digested with restriction enzymes, NotI and SalI, and inserted into a plasmid pFASTBAC1 (Invitrogen) to prepare a plasmid pFB-ASK1. The insert was verified by sequencing. Recombinant baculovirus was prepared according to the procedure of the Bac-to-Bac baculovirus expression system (Invitrogen).
# Sf-21 cells were seeded to achieve 1×10^6 cells/mL in 100 mL of Sf-900 II SFM medium (Invitrogen) which contains 10% fetal calf serum and then cultured at 27° C. for 24 hrs. To express ASK1 in cells, 0.15 mL of the recombinant baculovirus virus stock was added to cells, and the then cultured for 60 hrs. The cells were separated from the culture solution by centrifugation at 3000 rpm for 10 min and washed once with PBS. The cells were suspended in 10 mL of lysis buffer (25 mM HEPES (pH 7.5), 1% Triton X, 130 mM NaCl, 1 mM EDTA, 1 mM DTT, 25 mM β-glycerophosphate, Protease inhibitor complete (Roche), 1 mM sodium orthovanadate) and ruptured by four times of treatment with a homogenizer (POLYTRON) at 20000 rpm for 30 seconds. Active ASK1 protein was purified from a supernatant obtained by centrifugal separation at 40000 rpm for 45 min using anti-FLAG M2 Affinity Gel (Sigma).
# The test compounds (2.5 μL) dissolved in DMSO were added to wells containing 37.5 μl of the reaction solution (25 mM HEPES (pH 7.5), 10 mM magnesium acetate, 1 mM DTT) including 30 ng of active ASK1 protein and 1 μg of myelin basic protein (Wako), and incubated at room temperature for 5 min. To start the reaction, 10 μL of ATP solution (2.5 μM ATP, 0.1 μCi [γ-^32P]ATP) was added to wells. After incubating at room temperature for 30 min, the reaction was terminated by adding 50 μl of 20% TCA solution. The reaction solution was incubated at 4° C. for 30 min and an acid-insoluble fraction was transferred onto a GF/C filter (Packard) with Cell Harvester (Packard), and washed with 250 mM phosphoric acid. After drying at 45° C. for 60 min., 40 μL of Microscint 0 (Packard) was added and the radioactivity was measured with TopCount (Packard). The concentrations (IC50 value) of the test compounds necessary for 50% inhibition of kinase activity were calculated by PRISM 3.0 (Graphpad Software).
# The enzyme activities of the compounds of the present invention against ASK1 were determined using the assay disclosed in Example A and B. The resulted IC50 values are reported in Table 1.
# [1] = Table 1, assay of Example A and B, read-out: Enzyme Activity IC50
Structure (SMILES),IC50 [1],"IC50 (assay described in Example B, read-out: IC50 value)"
"CC(C)(O)c1ccc(C(=O)Nc2nc3ccc(N4CCCC4)nc3s2)cc1 [Compound 8, 4-(2-hydroxypropan-2-yl)-N-(5-(pyrrolidin-1-yl)thiazolo[5,4-b]pyridin-2-yl)benzamide]",> 1000 nM,
"CCc1nccn1-c1ccc2nc(NC(=O)c3ccc(C(C)(C)O)cc3)sc2n1 [Compound 22, N-(5-(2-ethyl-1H-imidazol-1-yl)thiazolo[5,4-b]pyridin-2-yl)-4-(2-hydroxypropan-2-yl)benzamide]",> 1000 nM,
"CC(C)(CO)c1ccc(C(=O)Nc2nc3ccc(-c4ccncc4)nc3s2)cc1 [Compound 34, 4-(1-hydroxy-2-methylpropan-2-yl)-N-(5-(pyridin-4-yl)thiazolo[5,4-b]pyridin-2-yl)benzamide]",100 to 1000 nM,
"Cn1cc(-c2ccc3nc(NC(=O)c4ccc(C(C)(C)O)cc4)sc3n2)cn1 [Compound 19, 4-(2-hydroxypropan-2-yl)-N-(5-(1-methyl-1H-pyrazol-4-yl)thiazolo[5,4-b]pyridin-2-yl)benzamide]",100 to 1000 nM,
"COC(=O)c1ccc(C(=O)Nc2nc3ccc(-c4c[nH]nc4C)nc3s2)cc1 [Compound 20, methyl 4-(5-(3-methyl-1H-pyrazol-4-yl)thiazolo[5,4-b]pyridin-2-ylcarbamoyl)benzoate]",> 1000 nM,
"CC(C)(O)c1ccc(C(=O)Nc2nc3ccc(-n4ccnc4)nc3s2)cc1 [Compound 7, N-(5-(1H-imidazol-1-yl)thiazolo[5,4-b]pyridin-2-yl)-4-(2-hydroxypropan-2-yl)benzamide]",100 to 1000 nM,
"CC(C)(O)c1ccc(C(=O)Nc2nc3ccc(-c4ccncc4)nc3s2)cc1 [Compound 30, 4-(2-hydroxypropan-2-yl)-N-(5-(pyridin-4-yl)thiazolo[5,4-b]pyridin-2-yl)benzamide]",100 to 1000 nM,310 nM
"Cc1n[nH]c(C)c1-c1ccc2nc(NC(=O)c3ccc(C(C)(C)O)cc3)sc2n1 [Compound 14, N-(5-(3,5-dimethyl-1H-pyrazol-4-yl)thiazolo[5,4-b]pyridin-2-yl)-4-(2-hydroxypropan-2-yl)benzamide]",100 to 1000 nM,
"O=C(Nc1nc2ccc(-c3cn[nH]c3)nc2s1)c1ccc(C2CC2)cc1 [Compound 5, N-(5-(1H-pyrazol-4-yl)thiazolo[5,4-b]pyridin-2-yl)-4-cyclopropylbenzamide]",> 1000 nM,
"CC(C)(C)c1ccc(C(=O)Nc2nc3ccc(-n4ccnc4)nc3s2)cc1 [Compound 11, N-(5-(1H-imidazol-1-yl)thiazolo[5,4-b]pyridin-2-yl)-4-tert-butylbenzamide]",100 to 1000 nM,
"CC(C)(O)c1ccc(C(=O)Nc2nc3ccc(N4CC[C@@H](O)C4)nc3s2)cc1 [Compound 36, (R)-4-(2-hydroxypropan-2-yl)-N-(5-(3-hydroxypyrrolidin-1-yl)thiazolo[5,4-b]pyridin-2-yl)benzamide]",> 1000 nM,
"CC(C)(O)c1ccc(C(=O)Nc2nc3ccc(N4CCCCC4)nc3s2)cc1 [Compound 38, 4-(2-hydroxypropan-2-yl)-N-(5-(piperidin-1-yl)thiazolo[5,4-b]pyridin-2-yl)benzamide]",> 1000 nM,

# Now from value to compound:
IC50 [1],"IC50 (assay described in Example B, read-out: IC50 value)",Structure (SMILES)
< 100 nM,,"CC(C)(O)c1ccc(C(=O)Nc2nc3ccc(-c4ccc(O)nc4)nc3s2)cc1 [Compound 35, 4-(2-hydroxypropan-2-yl)-N-(5-(6-hydroxypyridin-3-yl)thiazolo[5,4-b]pyridin-2-yl)benzamide]"
100 to 1000 nM,,"CC(C)(C)c1ccc(C(=O)Nc2nc3ccc(-c4ccncc4)nc3s2)cc1 [Compound 10, 4-tert-butyl-N-(5-(pyridin-4-yl)thiazolo[5,4-b]pyridin-2-yl)benzamide]"
100 to 1000 nM,,"Cc1cnccc1-c1ccc2nc(NC(=O)c3ccc(C(C)(C)CO)cc3)sc2n1 [Compound 26, 4-(1-hydroxy-2-methylpropan-2-yl)-N-(5-(3-methylpyridin-4-yl)thiazolo[5,4-b]pyridin-2-yl)benzamide]"
< 100 nM,,"Cc1n[nH]cc1-c1ccc2nc(NC(=O)c3ccc(C(C)(C)O)cc3)sc2n1 [Compound 15, 4-(2-hydroxypropan-2-yl)-N-(5-(3-methyl-1H-pyrazol-4-yl)thiazolo[5,4-b]pyridin-2-yl)benzamide]"
< 100 nM,,"Cc1n[nH]cc1-c1ccc2nc(NC(=O)c3ccc(C(C)(C)CO)cc3)sc2n1 [Compound 21, 4-(1-hydroxy-2-methylpropan-2-yl)-N-(5-(3-methyl-1H-pyrazol-4-yl)thiazolo[5,4-b]pyridin-2-yl)benzamide]"
< 100 nM,,"CC(C)(O)c1ccc(C(=O)Nc2nc3ccc(-c4cn[nH]c4)nc3s2)cc1 [Compound 12, N-(5-(1H-pyrazol-4-yl)thiazolo[5,4-b]pyridin-2-yl)-4-(2-hydroxypropan-2-yl)benzamide]"
< 100 nM,,"CC(C)(CO)c1ccc(C(=O)Nc2nc3ccc(-c4cn[nH]c4)nc3s2)cc1 [Compound 13, N-(5-(1H-pyrazol-4-yl)thiazolo[5,4-b]pyridin-2-yl)-4-(1-hydroxy-2-methylpropan-2-yl)benzamide]"
< 100 nM,,"CC(C)(C)c1ccc(C(=O)Nc2nc3ccc(-c4cn[nH]c4)nc3s2)cc1 [Compound 9, N-(5-(1H-pyrazol-4-yl)thiazolo[5,4-b]pyridin-2-yl)-4-tert-butylbenzamide]"
< 100 nM,,"CC(C)(CO)c1ccc(C(=O)Nc2nc3ccc(-c4ccc(O)nc4)nc3s2)cc1 [Compound 33, 4-(1-hydroxy-2-methylpropan-2-yl)-N-(5-(6-hydroxypyridin-3-yl)thiazolo[5,4-b]pyridin-2-yl)benzamide]"

# Reference: patent US8178555B2, “Apoptosis signal-regulating kinase 1 inhibitors” (Takeda Pharmaceutical Company Limited, priority 2009, dated 2012)
